Test results from the NIST ThermoML archive (doi:10.1016/j.jct.2005.08.005).
± gives the expanded uncertainty stated by the source.

Experiments:
[1] = refractive index (other wavelength) (dimensionless); settings: 101.3 kPa, Liquid, Wavelength=632.8 nm, Method described in references 3 and 4 of the article
[2] = refractive index (other wavelength) (dimensionless); xn = mol fraction of the nth substance listed; settings: 101.3 kPa, Liquid, Wavelength=632.8 nm, Method described in references 3 and 4 of the article, x2 = 0

N#Cc1ccccc1 [benzonitrile]
[1]
Settings | refractive index
294.62 K | 1.5246 ± 0.0002
296.97 K | 1.5235 ± 0.0002
299.08 K | 1.5224 ± 0.0002
301.39 K | 1.5213 ± 0.0002
303.42 K | 1.5203 ± 0.0002
305.92 K | 1.5191 ± 0.0002

CCCCCCCCCCCCCCCC [hexadecane]
[1]
Settings | refractive index
294.85 K | 1.4324 ± 0.0002
295.86 K | 1.432 ± 0.0002
296.96 K | 1.4315 ± 0.0002
297.9 K | 1.4312 ± 0.0002
299.71 K | 1.4304 ± 0.0002
301.21 K | 1.4297 ± 0.0002
302.84 K | 1.4291 ± 0.0002
304.26 K | 1.4285 ± 0.0002

CCCCCCCCCCCCCCCC [hexadecane] + N#Cc1ccccc1
[2]
Settings | refractive index
294.85 K | 1.4324 ± 0.0002
295.86 K | 1.432 ± 0.0002
296.96 K | 1.4315 ± 0.0002
297.9 K | 1.4312 ± 0.0002
299.71 K | 1.4304 ± 0.0002
301.21 K | 1.4297 ± 0.0002
302.84 K | 1.4291 ± 0.0002
304.26 K | 1.4285 ± 0.0002
